We go through 20 compounds from PubChem BioAssay AID248 (DTP/NCI, 2004).

“And” between values parts separate entries of the source, which are not always exact repeats. Identical values can stand only once. Toxic doses and inconclusive results are not listed.

The test system of this assay is L1210 leukemia ip in BDF1 mice, survival T/C. Briefly: NCI In Vivo Anticancer Drug Screen. Data for tumor model L1210 Leukemia (intraperitoneal) in B6D2F1 (BDF1) mice. The conditions noted are these: endpoint: mean survival time, higher = longer survival. A digest of the protocol: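 Transplanted-tumor mice were given test agent; controls received vehicle only. Survival readings from the two groups were divided (treated over control).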

Where [1] appears, read: dose: 100.0 mg/kg/injection, schedule: Q01DX009 (ip), vehicle: Klucel (hydroxypropylcellulose) (HPC).
The mark [2] stands for this setting: dose: 200.0 mg/kg/injection, schedule: Q01DX009 (ip), vehicle: Klucel (hydroxypropylcellulose) (HPC).
Setting [3] is: dose: 400.0 mg/kg/injection, schedule: Q01DX009 (ip), vehicle: Klucel (hydroxypropylcellulose) (HPC).
Where [4] appears, read: dose: 100.0 mg/kg/injection, schedule: Q01DX001 (ip), vehicle: carboxymethylcellulose (CMC).
The mark [5] stands for this setting: dose: 200.0 mg/kg/injection, schedule: Q01DX001 (ip), vehicle: carboxymethylcellulose (CMC).
The mark [6] stands for this setting: dose: 400.0 mg/kg/injection, schedule: Q01DX001 (ip), vehicle: carboxymethylcellulose (CMC).
The mark [7] stands for this setting: dose: 100.0 mg/kg/injection, schedule: Q04DX003 (ip), vehicle: saline.
Where [8] appears, read: dose: 200.0 mg/kg/injection, schedule: Q04DX003 (ip), vehicle: saline.
Setting [9] is: dose: 100.0 mg/kg/injection, schedule: Q01DX001 (ip), vehicle: saline.
Setting [10] is: dose: 200.0 mg/kg/injection, schedule: Q01DX001 (ip), vehicle: saline.
[11] abbreviates: dose: 400.0 mg/kg/injection, schedule: Q01DX001 (ip), vehicle: saline.
[12] abbreviates: dose: 100.0 mg/kg/injection, schedule: Q04DX003 (ip), vehicle: Klucel (hydroxypropylcellulose) (HPC).
Where [13] appears, read: dose: 200.0 mg/kg/injection, schedule: Q04DX003 (ip), vehicle: Klucel (hydroxypropylcellulose) (HPC).

As for `N=C(N)c1cccc(NC(=O)c2ccc(C(=O)Nc3cccc(C(=N)N)c3)c([N+](=O)[O-])c2)c1`, the T/C is 96 % of control (dose: 1.0 mg/kg/injection, schedule: Q01DX015 (ip), vehicle: water); 96 % of control (dose: 2.0 mg/kg/injection, schedule: Q01DX015 (ip), vehicle: water); 102 % of control (dose: 4.0 mg/kg/injection, schedule: Q01DX015 (ip), vehicle: water); 102 % of control and 109 % of control (dose: 8.0 mg/kg/injection, schedule: Q01DX015 (ip), vehicle: water); 115 % of control (dose: 16.0 mg/kg/injection, schedule: Q01DX015 (ip), vehicle: water).

Take `COc1ccccc1NC(=O)NCc1cc(C)ccc1C`: the T/C under setting [1] is 93 % of control, the T/C under setting [2] is 88 % of control and the T/C under setting [3] was 93 % of control.

Regarding `c1cc[c]([Pb]([c]2ccccc2)([c]2ccccc2)[c]2ccccc2)cc1`, the T/C was 103 % of control (dose: 50.0 mg/kg/injection, schedule: Q04DX002 (ip), vehicle: Klucel (hydroxypropylcellulose) (HPC)); 103 % of control (dose: 100.0 mg/kg/injection, schedule: Q04DX002 (ip), vehicle: Klucel (hydroxypropylcellulose) (HPC)); 113 % of control and 115 % of control (dose: 200.0 mg/kg/injection, schedule: Q04DX002 (ip), vehicle: Klucel (hydroxypropylcellulose) (HPC)); 101 % of control (dose: 400.0 mg/kg/injection, schedule: Q04DX002 (ip), vehicle: Klucel (hydroxypropylcellulose) (HPC)).

For `C[Si](C)(CCl)CCCO[Si](C)(C)CCl`, the T/C is 102 % of control (dose: 50.0 mg/kg/injection, schedule: Q01DX001 (ip), vehicle: carboxymethylcellulose (CMC)); 108 % of control under setting [4]; 96 % of control under setting [5]; 98 % of control under setting [6].

For `CC(=O)/C=C(/C)O`, the T/C under setting [7] is 100 % of control and the T/C under setting [8] was 118 % of control.

Turning to `CN/N=C/c1[nH]c(=O)[nH]c(=O)c1C`, the T/C under setting [9] was 93 % of control, the T/C under setting [10] was 96 % of control and the T/C under setting [11] is 104 % of control.

Turning to `Cc1cc2[nH]c(=O)c(=O)[nH]c2cc1C`, the T/C (dose: 50.0 mg/kg/injection, schedule: Q04DX003 (ip), vehicle: Klucel (hydroxypropylcellulose) (HPC)) was 104 % of control; the T/C under setting [1] is 105 % of control; the T/C under setting [12] is 94 % of control; the T/C under setting [2] was 100 % of control; the T/C under setting [13] is 100 % of control.

For `CCC1(O)C(=O)OCc2c1c(Br)c(-c1ccccc1)n(C)c2=O` (stereo not drawn), the T/C is, setting by setting: (dose: 25.0 mg/kg/injection, schedule: Q01DX001 (ip), vehicle: saline with Tween-80) 110 % of control; (dose: 50.0 mg/kg/injection, schedule: Q01DX001 (ip), vehicle: saline with Tween-80) 102 % of control; (dose: 200.0 mg/kg/injection, schedule: Q01DX001 (ip), vehicle: saline with Tween-80) 121 % of control.

Turning to `CC(C)(C)c1cc([N+](=O)[O-])cc(C(C)(C)C)c1O`, the T/C reads like this: (dose: 50.0 mg/kg/injection, schedule: Q01DX009 (ip), vehicle: saline with Tween-80) 102 % of control; under setting [9], 96 % of control; (dose: 100.0 mg/kg/injection, schedule: Q01DX009 (ip), vehicle: saline with Tween-80) 98 % of control; under setting [7], 101 % of control; under setting [10], 94 % of control; under setting [8], 93 % of control. Besides, the T/C under setting [11] is 93 % of control.

Turning to `COC1OC(CO)C(O)C(N)C1O` (stereo not drawn), the T/C is, setting by setting: under setting [7], 109 % of control; under setting [8], 98 % of control.

Take `CCC(=O)c1cc(Cl)ccc1O`: the T/C is, setting by setting: (dose: 100.0 mg/kg/injection, schedule: Q01DX009 (ip), vehicle: other) 100 % of control; (dose: 200.0 mg/kg/injection, schedule: Q01DX009 (ip), vehicle: other) 104 % of control; (dose: 400.0 mg/kg/injection, schedule: Q01DX009 (ip), vehicle: other) 102 % of control.

`Cc1ccc(CNC(=S)Nc2ccccc2)cc1`: the T/C is, setting by setting: (dose: 1.56 mg/kg/injection, schedule: Q01DX009 (ip), vehicle: Klucel (hydroxypropylcellulose) (HPC)) 107 % of control; (dose: 3.12 mg/kg/injection, schedule: Q01DX009 (ip), vehicle: Klucel (hydroxypropylcellulose) (HPC)) 104 % of control; (dose: 6.25 mg/kg/injection, schedule: Q01DX009 (ip), vehicle: Klucel (hydroxypropylcellulose) (HPC)) 96 % of control and 100 % of control; under setting [12], 96 % of control; under setting [13], 96 % of control; (dose: 400.0 mg/kg/injection, schedule: Q04DX003 (ip), vehicle: Klucel (hydroxypropylcellulose) (HPC)) 92 % of control.

For `CCCCCCCCCCCCCCCCS(=O)(=O)N/N=C/c1ccc([N+](=O)[O-])cc1`, the T/C by setting is: under setting [4], 94 % of control; under setting [5], 87 % of control; under setting [6], 105 % of control.

`O=C1/C(=C\c2cccc3ccccc23)CS(=O)(=O)C/C1=C/c1cccc2ccccc12`: the T/C under setting [9] was 95 % of control, the T/C under setting [10] is 94 % of control and the T/C under setting [11] was 94 % of control.

Regarding `O=C(Cc1ccc2c(c1)OCO2)c1cn(C(=O)Cc2ccc3c(c2)OCO3)c2ccccc12`, the T/C (dose: 50.0 mg/kg/injection, schedule: Q01DX001 (ip), vehicle: saline) was 108 % of control; the T/C under setting [9] was 102 % of control; the T/C under setting [10] is 93 % of control; the T/C under setting [11] is 96 % of control.

For the compound `C[C@H]1CN1C1=CC(=O)C(N2C[C@@H]2C)=CC1=O`, the T/C is, setting by setting: (dose: 0.88 mg/kg/injection, schedule: Q04DX003 (ip), vehicle: other) 106 % of control; (dose: 1.0 mg/kg/injection, schedule: Q01DX001 (ip), vehicle: other) 108 % of control; (dose: 1.56 mg/kg/injection, schedule: Q01DX009 (ip), vehicle: other) 120 % of control; (dose: 2.0 mg/kg/injection, schedule: Q01DX001 (ip), vehicle: other) 105 % of control; (dose: 2.0 mg/kg/injection, schedule: Q04DX003 (ip), vehicle: Klucel (hydroxypropylcellulose) (HPC)) 108 % of control; (dose: 2.0 mg/kg/injection, schedule: Q04DX003 (ip), vehicle: other) 120 % of control. Moreover, the T/C is 117 % of control (dose: 4.0 mg/kg/injection, schedule: Q04DX003 (ip), vehicle: Klucel (hydroxypropylcellulose) (HPC)); 166 % of control (dose: 5.0 mg/kg/injection, schedule: Q01DX009 (ip), vehicle: other); 124 % of control (dose: 8.0 mg/kg/injection, schedule: Q04DX003 (ip), vehicle: Klucel (hydroxypropylcellulose) (HPC)); 95 % of control (dose: 9.0 mg/kg/injection, schedule: Q04DX003 (ip), vehicle: saline with Tween-80); 114 % of control (dose: 9.5 mg/kg/injection, schedule: Q01DX001 (ip), vehicle: other); 92 % of control (dose: 12.0 mg/kg/injection, schedule: Q01DX009 (ip), vehicle: other). Further, under “dose: 25.0 mg/kg/injection, schedule: Q04DX003 (ip), vehicle: saline with Tween-80”, the T/C is 105 % of control.

Take `CCCCCCCCCCCC(=O)N/N=C(\C)c1cccc2ccccc12`: the T/C reads like this: (dose: 25.0 mg/kg/injection, schedule: Q01DX009 (ip), vehicle: Klucel (hydroxypropylcellulose) (HPC)) 92 % of control; (dose: 50.0 mg/kg/injection, schedule: Q01DX009 (ip), vehicle: Klucel (hydroxypropylcellulose) (HPC)) 96 % of control; under setting [1], 88 % of control and 92 % of control.

`C=C(Cl)CNC(=O)c1ccc([N+](=O)[O-])cc1`: the T/C runs as follows: under setting [12], 98 % of control; under setting [13], 104 % of control.

For the compound `O=NN(CCCl)C(=O)NC1Cc2ccccc2C1`, the T/C is, setting by setting: (dose: 8.0 mg/kg/injection, schedule: Q01DX001 (ip), vehicle: other) 109 % of control; (dose: 62.0 mg/kg/injection, schedule: Q01DX001 (ip), vehicle: other) 239 % of control; (dose: 125.0 mg/kg/injection, schedule: Q01DX001 (ip), vehicle: other) 264 % of control; (dose: 250.0 mg/kg/injection, schedule: Q01DX001 (ip), vehicle: other) 112 % of control; (dose: 500.0 mg/kg/injection, schedule: Q01DX001 (ip), vehicle: other) 86 % of control.

For the compound `COc1ccc(OC)c(NC(=O)NC(C)(C)C)c1`, the T/C is 101 % of control under setting [1], 103 % of control under setting [2] and 88 % of control under setting [3].
